Source: patent US12331046B2, “CTPS1 inhibitors and uses thereof” (Nimbus Clotho, Inc., priority 2020, dated 2025)
Where a name gives a salt, the structure may show the parent alone.

The molecules below were run against human CTPS1 (Homo sapiens (Human), UniProt P17812) (assay: hCTPS1 biochemical assay (ADP-Glo)). Settings: hCTPS1 25 nM, ATP 120 uM, UTP 160 uM, GTP 60 uM, L-Glutamine 100 uM, 25 degrees C.
Sequence of human CTPS1 (P17812 whole entry): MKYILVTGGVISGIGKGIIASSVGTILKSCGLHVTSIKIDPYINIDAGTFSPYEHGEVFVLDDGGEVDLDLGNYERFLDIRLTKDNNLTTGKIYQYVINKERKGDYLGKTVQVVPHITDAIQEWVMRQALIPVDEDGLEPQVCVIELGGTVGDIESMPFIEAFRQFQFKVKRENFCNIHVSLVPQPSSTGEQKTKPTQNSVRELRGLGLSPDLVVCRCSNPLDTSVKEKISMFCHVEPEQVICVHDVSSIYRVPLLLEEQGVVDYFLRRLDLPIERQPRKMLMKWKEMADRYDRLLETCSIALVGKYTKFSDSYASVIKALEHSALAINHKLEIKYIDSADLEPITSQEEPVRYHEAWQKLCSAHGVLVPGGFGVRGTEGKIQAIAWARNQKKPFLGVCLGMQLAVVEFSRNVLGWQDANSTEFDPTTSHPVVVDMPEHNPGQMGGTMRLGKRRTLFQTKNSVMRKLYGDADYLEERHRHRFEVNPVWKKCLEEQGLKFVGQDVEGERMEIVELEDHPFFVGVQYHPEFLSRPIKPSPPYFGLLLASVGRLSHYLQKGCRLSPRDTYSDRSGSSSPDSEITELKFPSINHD
`CCOc1cncc(-c2ccc(C(=O)N3CCC[C@H]3c3ccnc(NS(=O)(=O)C4CC4)n3)c(F)c2)n1` [I-286, N-[4-[(2S)-1-[4-(6-ethoxypyrazin-2-yl)-2-fluorobenzoyl]pyrrolidin-2-yl]pyrimidin-2-yl]cyclopropanesulfonamide] showed an IC50 of under 0.1 µM. `CCn1ncc2ncc(-c3cnc(C(=O)NCc4cc(NS(=O)(=O)C5CC5)ccn4)s3)nc21` [I-149, N-((4-(cyclopropanesulfonamido)pyridin-2-yl)methyl)-5-(1-ethyl-1H-pyrazolo[3,4-b]pyrazin-6-yl)thiazole-2-carboxamide] showed an IC50 of at least 1 µM. `O=C(NCc1cc(NS(=O)(=O)C2CC2)ccn1)c1ncc(-c2cncc(C(F)(F)F)n2)s1` [I-253] gave an IC50 of under 0.1 µM. `CCOc1cncc(-c2ccc(C(=O)NCc3cccc(NS(=O)(=O)C(F)F)c3)nc2)n1` [I-63, N-[[3-(difluoromethanesulfonamido)phenyl]methyl]-5-(6-ethoxypyrazin-2-yl)pyridine-2-carboxamide] was tested, and the IC50 was under 0.1 µM. For `CCOc1cncc(-c2ncc(C(=O)NCc3cc(NS(=O)(=O)C4CC4)ccn3)s2)n1` [I-32], the IC50 was under 0.1 µM. `CCOc1cncc(-c2cnc(C(=O)N[C@@](C)(COC)c3cc(NS(=O)(=O)C4CC4)ccn3)s2)n1` [I-91, (R)—N-(2-(4-(cyclopropanesulfonamido)pyridin-2-yl)-1-methoxypropan-2-yl)-5-(6-ethoxypyrazin-2-yl)thiazole-2-carboxamide] was tested, and the IC50 was 0.1 to 1 µM. `CCOc1cncc(-c2cnc(C(=O)NC(CCN3CC[C@@H](F)C3)c3cc(NS(=O)(=O)C4CC4)ccn3)s2)n1` (stereo partly drawn) [I-131, N-(1-(4-(cyclopropanesulfonamido)pyridin-2-yl)-3-((R)-3-fluoropyrrolidin-1-yl)propyl)-5-(6-ethoxypyrazin-2-yl)thiazole-2-carboxamide] showed an IC50 of under 0.1 µM. Work on `O=C(NCc1cc(NS(=O)(=O)C2CC2)ccn1)c1ncc(-c2cnn3ccc(Cl)cc23)s1` [I-197] yielded an IC50 of under 0.1 µM. In the case of `CCOc1cncc(-c2cnc(C(=O)N[C@@H](CCN(C)C)c3cccc(NS(=O)(=O)C4CC4)c3)s2)n1` (single isomer, unassigned) [I-144], the IC50 is reported as under 0.1 µM. Molecule `COc1cncc(-c2ccc(C(=O)NCc3cc(NS(=O)(=O)C4CC4)ccn3)nc2)n1` [I-24] has an IC50 of under 0.1 µM. With `Cc1cc2c(-c3cnc(C(=O)NCc4cc(NS(=O)(=O)C5CC5)ccn4)s3)cncn2n1` [I-185] the IC50 was 0.1 to 1 µM. Work on `CCOc1cncc(-c2cnc(C(=O)NC(CCN3CCCCC3)c3cc(NS(=O)(=O)C4CC4)ccn3)s2)n1` (centres unmarked) [I-176, N-(1-(4-(cyclopropanesulfonamido)pyridin-2-yl)-3-(piperidin-1-yl)propyl)-5-(6-ethoxypyrazin-2-yl)thiazole-2-carboxamide] yielded an IC50 of under 0.1 µM. Work on `CCOc1cncc(-c2cnc(C(=O)NC(CCN(C)C)c3cc(NS(=O)(=O)C4CC4)ccn3)s2)n1` (centres unmarked) [I-201, N-(1-(4-(cyclopropanesulfonamido)pyridin-2-yl)-3-(dimethylamino)propyl)-5-(6-ethoxypyrazin-2-yl)thiazole-2-carboxamide] yielded an IC50 of under 0.1 µM. Work on `CCOc1cncc(-c2ccc(C(=O)NCc3nccc(NS(=O)(=O)C4CC4)c3OC)c(F)c2)n1` [I-257, N-[(4-cyclopropanesulfonamido-3-methoxypyridin-2-yl)methyl]-4-(6-ethoxypyrazin-2-yl)-2-fluorobenzamide] yielded an IC50 of under 0.1 µM. Molecule `CCOc1cncc(-n2cnc(C(=O)NC3(c4cccc(NS(=O)(=O)C(F)F)c4)CC3)c2)n1` [I-283, N-[1-[3-(difluoromethanesulfonamido)phenyl]cyclopropyl]-1-(6-ethoxypyrazin-2-yl)imidazole-4-carboxamide] has an IC50 of under 0.1 µM. Work on `CCOc1cncc(-c2ccc(C(=O)N[C@H](CC)c3cc(NS(=O)(=O)C4CC4)ccn3)c(F)c2)n1` [I-72] yielded an IC50 of under 0.1 µM. Work on `CCOc1cncc(-c2cnc(C(=O)NC(CCCN(C)C)c3cc(NS(=O)(=O)C4CC4)ccn3)s2)n1` (centres unmarked) [I-173, N-(1-(4-(cyclopropanesulfonamido)pyridin-2-yl)-4-(dimethylamino)butyl)-5-(6-ethoxypyrazin-2-yl)thiazole-2-carboxamide, formic acid salt] yielded an IC50 of under 0.1 µM. In the case of `CCOc1cncc(-c2cnc(C(=O)N[C@H](C[C@@H]3CCCCN3C)c3cc(NS(=O)(=O)C4CC4)ccn3)s2)n1` (single isomer, unassigned) [I-136], the IC50 is reported as under 0.1 µM. Molecule `CCOc1cncc(-c2ncc(C(=O)NCc3cc(NS(=O)(=O)C4CC4)ccn3)o2)n1` [I-44] has an IC50 of at least 1 µM. `CCOc1cncc(-c2ccc(C(=O)NCc3cccc(NS(=O)(=O)C(F)F)c3)cc2)n1` [I-49] gave an IC50 of under 0.1 µM. Work on `O=C(NCc1cc(NS(=O)(=O)C2CC2)ccn1)c1ncc(-c2cnn3ccc(C(F)(F)F)cc23)s1` [I-177] yielded an IC50 of under 0.1 µM. Molecule `CCOc1cncc(-c2cnc(C(=O)N[C@H](CCN3CCCCC3)c3cc(NS(=O)(=O)C4CC4)ccn3)s2)n1` [I-160, (R)—N-(1-(4-(cyclopropanesulfonamido)pyridin-2-yl)-3-(piperidin-1-yl)propyl)-5-(6-ethoxypyrazin-2-yl)thiazole-2-carboxamide] has an IC50 of 0.1 to 1 µM. Molecule `O=C(NCc1cc(NS(=O)(=O)C2CC2)ccn1)c1ncc(-c2cnn3cc(Cl)ccc23)s1` [I-202] has an IC50 of 0.1 to 1 µM. With `CC(C)Oc1cncc(-c2ccc(C(=O)NCc3cc(NS(=O)(=O)C4CC4)ccn3)cc2)n1` [I-33] the IC50 was under 0.1 µM. Molecule `CCOc1cncc(-c2cnc(C(=O)N[C@@H](c3cc(NS(=O)(=O)C4CC4)ccn3)[C@@H]3CCOC3)s2)n1` (single isomer, unassigned) [I-93] has an IC50 of under 0.1 µM. Molecule `CCOc1cncc(-c2cnc(C(=O)N[C@H](COC)c3cc(NS(=O)(=O)C4CC4)ccn3)s2)n1` [I-188] has an IC50 of under 0.1 µM. With `CCOc1cncc(-c2cnc(C(=O)N[C@@H](CN3CCN(C4CC4)CC3)c3cc(NS(=O)(=O)C4CC4)ccn3)s2)n1` (single isomer, unassigned) [I-119] the IC50 was under 0.1 µM. `CCOc1cncc(-c2ccc(C(=O)NCc3cc(NS(=O)(=O)C4CC4)ccn3)c(=O)[nH]2)n1` [I-59] was tested, and the IC50 was 0.1 to 1 µM. Work on `CCOc1cncc(-c2cnc(C(=O)N[C@](C)(COC)c3cc(NS(=O)(=O)C4CC4)ccn3)s2)n1` [I-90, (S)—N-(2-(4-(cyclopropanesulfonamido)pyridin-2-yl)-1-methoxypropan-2-yl)-5-(6-ethoxypyrazin-2-yl)thiazole-2-carboxamide] yielded an IC50 of under 0.1 µM. For `CCOc1cncc(-c2cnc(C(=O)N[C@H](CN3CCN(C)CC3)c3cc(NS(=O)(=O)C4CC4)ccn3)s2)n1` (single isomer, unassigned) [I-192], the IC50 was under 0.1 µM. For `CCOc1cncc(-c2cnc(C(=O)NC(C)(CCOC)c3cc(NS(=O)(=O)C4CC4)ccn3)s2)n1` (centres unmarked) [I-178], the IC50 was 0.1 to 1 µM. `CCOc1cncc(-c2cnc(C(=O)N[C@@H](CN3CCNCC3)c3cc(NS(=O)(=O)C4CC4)ccn3)s2)n1` [I-206, (S)—N-(1-(4-(cyclopropanesulfonamido)pyridin-2-yl)-2-(piperazin-1-yl)ethyl)-5-(6-ethoxypyrazin-2-yl)thiazole-2-carboxamide] showed an IC50 of under 0.1 µM. `CCOc1cncc(-c2ccc(C(=O)NCc3nsc(NS(=O)(=O)C4CC4)n3)cc2)n1` [I-48, N-((5-(cyclopropanesulfonamido)-1,2,4-thiadiazol-3-yl)methyl)-4-(6-ethoxypyrazin-2-yl)benzamide] gave an IC50 of under 0.1 µM. With `CCOc1cncc(-c2cnc(C(=O)N[C@@H](c3cc(NS(=O)(=O)C4CC4)ccn3)[C@H]3C[C@H](N(C)C)C3)s2)n1` (single isomer, unassigned) [I-107, N-((4-(cyclopropanesulfonamido)pyridin-2-yl)((1r, 3r)-3-(dimethylamino)cyclobutyl)methyl)-5-(6-ethoxypyrazin-2-yl)thiazole-2-carboxamide] the IC50 was under 0.1 µM. With `CCOc1cncc(-c2cnc(C(=O)NC3(c4cccc(NS(=O)(=O)C(F)F)c4)CC3)s2)n1` [I-69, N-[1-[3-(difluoromethanesulfonamido)phenyl]cyclopropyl]-5-(6-ethoxypyrazin-2-yl)-1,3-thiazole-2-carboxamide] the IC50 was under 0.1 µM. Work on `CCOc1cncc(-c2cnc(C(=O)NC(CN3CCOCC3(C)C)c3cc(NS(=O)(=O)C4CC4)ccn3)s2)n1` (centres unmarked) [I-122] yielded an IC50 of under 0.1 µM. Molecule `CCOc1cncc(-c2ccc(NC(=O)C(NC(=O)CCOCCOCCNC(=O)OC(C)(C)C)c3csc(NS(=O)(=O)C4CC4)n3)cc2)n1` (centres unmarked) [Z-8, tert-butyl 2-(2-(3-(1-(2-(cyclopropanesulfonamido)thiazol-4-yl)-2-(4-(6-ethoxypyrazin-2-yl)phenylamino)-2-oxoethylamino)-3-oxopropoxy)ethoxy)ethylcarbamate] has an IC50 of under 0.1 µM. Molecule `CCOc1cncc(-c2ccc(C(=O)N3CCCC3c3ccnc(NS(=O)(=O)C4CC4)n3)nc2)n1` (stereo in doubt) [I-34, N-[4-[(2S)-1-[5-(6-ethoxypyrazin-2-yl)pyridine-2-carbonyl]pyrrolidin-2-yl]pyrimidin-2-yl]cyclopropanesulfonamide] has an IC50 of under 0.1 µM. `CCOc1cncc(-c2ccc(C(=O)N[C@@H](CC)c3cc(NS(=O)(=O)C4CC4)ccn3)c(F)c2)n1` [I-73] gave an IC50 of under 0.1 µM. For `CCOc1cncc(-c2ccc(C(=O)NC3(c4cccc5c4ccn5S(=O)(=O)C4CC4)CC3)nc2)n1` [I-20, N-(1-(1-(cyclopropylsulfonyl)-1H-indol-4-yl)cyclopropyl)-5-(6-ethoxypyrazin-2-yl)picolinamide], the IC50 was at least 1 µM. `CCOc1cncc(-c2cnc(C(=O)N[C@@H](CCN(C)C)c3c(F)ccc(NS(=O)(=O)C4CC4)c3F)s2)n1` (single isomer, unassigned) [I-125] was tested, and the IC50 was at least 1 µM. With `CCOc1cncc(-c2cnc(C(=O)NC(c3cc(NS(=O)(=O)C4CC4)ccn3)C3CCNCC3)s2)n1` (centres unmarked) [I-153, N-((4-(cyclopropanesulfonamido)pyridin-2-yl)(piperidin-4-yl)methyl)-5-(6-ethoxypyrazin-2-yl)thiazole-2-carboxamide] the IC50 was under 0.1 µM. Work on `CCOc1cncc(-c2cccc(C(=O)NCc3cccc(NS(=O)(=O)C(F)F)c3)c2)n1` [I-280, N-[[3-(difluoromethanesulfonamido)phenyl]methyl]-3-(6-ethoxypyrazin-2-yl)benzamide] yielded an IC50 of at least 1 µM. With `CCOc1cncc(-c2cnc(C(=O)N[C@H](C[C@@H]3CCCCN3)c3cc(NS(=O)(=O)C4CC4)ccn3)s2)n1` (single isomer, unassigned) [I-141] the IC50 was under 0.1 µM.
